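Interpolation was linear, between the two tested concentrations surrounding the appropriate level; five concentrations were tested over 48 hours in 96-well plates. TGI: total growth inhibition.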
Columns and labels:
Assay in all cases: NCI tumour cell line growth inhibition, 48 h
[1] = system: DLD-1 colon
[2] = system: DMS 273 small cell lung
[3] = system: KM20L2 colon
[4] = system: M19-MEL melanoma
[5] = system: P388 leukemia
[6] = system: P388/ADR leukemia
[7] = system: SN12K1 renal
[8] = system: SNB-78 CNS
[9] = system: XF 498 CNS
[10] = system: LXFL 529 NSCLC

Row | SMILES | TGI [1] [µM] | TGI [2] [µM] | TGI [3] [µM] | TGI [4] [µM] | TGI [5] [µM] | TGI [6] [µM] | TGI [7] [µM] | TGI [8] [µM] | TGI [9] [µM] | TGI [10] [µM]
1 | O=C(O)c1cn2c3c(cc(N4CCN(CCO)CC4)cc3c1=O)SCC2 | > 100 | > 100 | > 100 | > 100 | > 100 | > 100 | > 100 | > 100 | 67.2 | 
2 | CN1CCC(CN2c3ccccc3Sc3ccccc32)CC1 | 28.3 | 26.2 | 25.8 | 26.4 |  |  |  | 30 | 23.9 | 27.5
